Series [1] has as its target Hsp104 (Saccharomyces cerevisiae, UniProt P31539). The following applies: cited from earlier work.
Series [2] has as its system Aβm2MRF. The format is cell-based, S. cerevisiae.
Series [3] relates to AβMRF. The class given is cell-based, S. cerevisiae.
The test system of series [4] is AβMRF. The class given is cell-based, S. cerevisiae. This is another data set of the same source.
Series [5] concerns Aβm1MRF. The format is cell-based, S. cerevisiae.
Series [6] deals with the molecule itself. Nature of the series: self-oligomerization; SDS electrophoresis and immunoblot of yeast lysates.
The target in series [7] is Hsp104 (yeast chaperone) (yeast S. cerevisiae, UniProt P31539 1-908). Nature of the series: co-immunoprecipitation from yeast lysate with anti-HA agarose beads, immunoblot with anti-Hsp104. As for the experimental part:
FIG. 7. […] Co-precipitated proteins were eluted and analyzed by immunoblotting with anti-RF and anti-Hsp104 antibodies.
Following incubation, the beads were washed three times with 0.5 ml of phosphate buffered saline containing 0.05% Tween 20 to remove the non-specifically bound proteins.

Series [8] deals with the molecule itself. Description: SDS electrophoresis (1% SDS, room temperature) and immunoblot of yeast lysates.

Hsp104, sequence (P31539 whole entry): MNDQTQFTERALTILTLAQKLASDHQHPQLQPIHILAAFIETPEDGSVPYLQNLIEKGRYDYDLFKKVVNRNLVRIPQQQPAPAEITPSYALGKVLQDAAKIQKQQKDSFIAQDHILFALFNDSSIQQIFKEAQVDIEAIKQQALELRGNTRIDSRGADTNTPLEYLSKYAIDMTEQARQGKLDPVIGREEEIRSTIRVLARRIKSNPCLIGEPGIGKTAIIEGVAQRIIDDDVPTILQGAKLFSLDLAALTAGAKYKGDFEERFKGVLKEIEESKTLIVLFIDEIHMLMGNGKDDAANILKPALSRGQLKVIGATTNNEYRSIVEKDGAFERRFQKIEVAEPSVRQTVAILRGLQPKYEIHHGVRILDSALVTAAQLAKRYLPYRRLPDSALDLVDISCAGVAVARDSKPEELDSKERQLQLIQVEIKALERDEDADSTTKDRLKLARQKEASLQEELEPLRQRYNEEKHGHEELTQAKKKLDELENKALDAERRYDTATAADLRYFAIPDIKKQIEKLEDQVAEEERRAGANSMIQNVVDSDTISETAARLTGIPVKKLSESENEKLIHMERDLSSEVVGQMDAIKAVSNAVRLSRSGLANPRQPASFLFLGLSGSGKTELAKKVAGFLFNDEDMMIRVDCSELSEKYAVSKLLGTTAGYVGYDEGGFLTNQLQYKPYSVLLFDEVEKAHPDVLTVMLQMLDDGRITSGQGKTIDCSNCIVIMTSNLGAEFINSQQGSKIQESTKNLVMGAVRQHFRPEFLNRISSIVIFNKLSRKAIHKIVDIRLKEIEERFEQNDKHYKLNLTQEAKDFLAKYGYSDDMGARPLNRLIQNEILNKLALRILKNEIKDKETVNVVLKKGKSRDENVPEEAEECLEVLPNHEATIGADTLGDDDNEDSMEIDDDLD
Hsp104 (yeast chaperone), sequence (P31539 whole entry): as above

Take guanidine hydrochloride: the “ATPase activity of Hsp104” value in series [1] is “inhibited by millimolar concentrations”. For the same molecule, the “effect on oligomers/monomers of control Aβm2MRF protein” value in series [2] is given as “No such effect was detected”. Also, in series [3], the “amount of AβMRF oligomers” value is “dramatically increased” and the “monomeric pool of AβMRF” value is given as “depleting the monomeric pool”. Besides, the “oligomerization of AβMRF in the absence of HSP104” value in series [4] is listed as “stimulated oligomerization of AβMRF”. In addition, in series [5], the “amount of Aβm1MRF oligomers” value is given as “dramatically increased” and the “monomeric pool of Aβm1MRF” value is given as “depleting the monomeric pool”.

B1: Aβm1MRF (Aβ42 F19,20T MRF, plasmid p1397) (other, yeast S. cerevisiae, not shown: small tags and cut ends)
chain: MDAEFRHDSGYEVHHQKLVTTAEDVGSNKGAIIGLMVGGVVIAMSLNDFQKQQKQAAPKPKKTLKLVSSSGIKLANATKKVGTKPAESDKKEEEKSAETKEPTKEPTKVEEPVKKEEKPVQTEEKTEEKSELPKVEDLKISESTHNTNNANVTSADALIKEQEEEVDDEVVNDMFGGKDHVSLIFMGHVDAGKSTMGGNLLYLTGSVDKRTIEKYEREAKDAGRQGWYLSWVMDTNKEERNDGKTIEVGKAYFETEKRRYTILDAPGHKMYVSEMIGGASQADVGVLVISARKGEYETGFERGGQTREHALLAKTQGVNKMVVVVNKMDDPTVNWSKERYDQCVSNVSNFLRAIGYNIKTDVVFMPVSGYSGANLKDHVDPKECPWYTGPTLLEYLDTMNHVDRHINAPFMLPIAAKMKDLGTIVEGKIESGHIKKGQSTLLMPNKTAVEIQNIYNETENEVDMAMCGEQVKLRIKGVEEEDISPGFVLTSPKNPIKSVTKFVAQIAIVELKSIIAAGFSCVMHVHTAIEEVHIVKLLHKLEKGTNRKSKKPPAFAKKGMKVIAVLETEAPVCVETYQDYPQLGRFTLRDQGTTIAIGKIVKIAE
notes: domain: M;domain: RF; also called Aβ^F19,20TMRF
For the molecule B1, in series [6], the binding result was “binds”.

B2: MRF (HA-tagged Sup35p without the 123 N-terminal amino acids, plasmid p1366) (other, yeast S. cerevisiae, UniProt P05453 124-253, looked up, not shown: small tags and cut ends)
chain: MSLNDFQKQQKQAAPKPKKTLKLVSSSGIKLANATKKVGTKPAESDKKEEEKSAETKEPTKEPTKVEEPVKKEEKPVQTEEKTEEKSELPKVEDLKISESTHNTNNANVTSADALIKEQEEEVDDEVVNDMFGGKDHVSLIFMGHVDAGKSTMGGNLLYLTGSVDKRTIEKYEREAKDAGRQGWYLSWVMDTNKEERNDGKTIEVGKAYFETEKRRYTILDAPGHKMYVSEMIGGASQADVGVLVISARKGEYETGFERGGQTREHALLAKTQGVNKMVVVVNKMDDPTVNWSKERYDQCVSNVSNFLRAIGYNIKTDVVFMPVSGYSGANLKDHVDPKECPWYTGPTLLEYLDTMNHVDRHINAPFMLPIAAKMKDLGTIVEGKIESGHIKKGQSTLLMPNKTAVEIQNIYNETENEVDMAMCGEQVKLRIKGVEEEDISPGFVLTSPKNPIKSVTKFVAQIAIVELKSIIAAGFSCVMHVHTAIEEVHIVKLLHKLEKGTNRKSKKPPAFAKKGMKVIAVLETEAPVCVETYQDYPQLGRFTLRDQGTTIAIGKIVKIAE
notes: domain: M;domain: RF; also called HA-tagged MRF; Sup35p without the N-terminal prion domain
Consider B2, for which the binding result in series [7] and in series [8] was “no binding” in each case.

Values taken from US20100196932A1, “Yeast Reporter System” (THE BOARD OF TRUSTEES OF THE UNIVERSITY OF ILLINOIS, priority 2006, published 2010).
